Series [1] concerns LIX-066 human primary hepatocellular carcinoma model. Description: In vivo efficacy study in LIX-066 xenograft model. Also on record: species or system mice. As to conditions: bid, po, D28. On the procedure: LIX-066 was a human primary hepatocellular carcinoma model from ChemPartner. 130 mice were implanted for this study. Two animals were designated as sentinels; 2 animals were designated as extras.
Animals were monitored daily by general clinical observation throughout the study period. Body weights were recorded twice weekly before randomization and recorded every day during dosing period and the dose was adjusted per body weight. Tumor areas (length×width) was measured two to three times per week by using digimatic callipers throughout the study period and tumor volumes were calculated based on the following formula: tumor volume=[…]. The tumor volume was then used for calculations of net tumor growth inhibition (TGIn) values. The TGIn (in percent) is the indication of anti-tumor activity. TGIn (%)=[1−avTi-0/avCi-0)]×100; avTi-0 is the average of the tumor volume of each mouse in the treatment group on a specific day minus the tumor volume of each mouse in the treatment group on the first day; avCi-0 is the average of the tumor volume of each mouse in the Vehicle control group on a specific day minus the tumor volume of each mouse in the Vehicle control group on the first day of treatment. Efficacy data was graphically represented as the mean tumor volume±standard error of the mean (SEM).
Based on about 40% take rate, 50 animals were selected for efficacy study when their tumors reach appropriate size (100-300 mm^3). Five animals were used for plasma PK standard control. All other animals were euthanized. The 50 animals were randomized (blocked randomization/using Excel software) and divided into the following groups for compound administration:
Group 1: N=10; Vehicle control (PEG400: 20% HP-γ-CD=3:2)
Group 2: N=10; Compound 1, 30 mg/kg, bid, po
Group 3: N=10; Compound 1, 100 mg/kg, bid, po […]
All animals were monitored daily for clinical observation (animal mortality, appearance, spontaneous activity, body posture, and food and water intake. Any lesions and adverse reactions were recorded). […]
The mice were euthanized and the tumor weights were measured without sampling.

Series [2] is described as follows: Tolerability in Hep3B and LIX-066 tumor models. The class given is in vivo. On the procedure: All animals were monitored daily for clinical observation (animal mortality, appearance, spontaneous activity, body posture, and food and water intake. Any lesions and adverse reactions were recorded). Any animals showing signs of debilitation, marked body weight loss (>20%), cachexia or large tumors that would inhibit an animal's ability to eat and drink or mobility were euthanized immediately. Any animals with severely ulcerated, infected or severely hemorrhagic tumors, or tumors whose estimated weight exceed 20% of the body weight were euthanized.
(§1) A similar study as described above was carried out using Hep3B-FGF19 amplified mice. Tumor volume results are shown in (FIG. 10A). Compound 1 monotherapy induced Hep3B tumor shrinkage (100% regression, >20% CRs).

Series [3] concerns Huh-7 liver cancer xenograft. Description: Huh-7 liver cancer xenograft efficacy study in female Balb/c nude mice. Type of series: in vivo, Mus Musculus. As to conditions: day eighteen. On the procedure: Each mouse was inoculated subcutaneously at the right flank with tumor cells (5×10^6) in 0.2 ml of PBS supplemented with Matrigel (50:50) for tumor development. The treatments were started on day 11 after tumor inoculation when the average tumor size reached approximately 183 mm^3. Each group consisted of nine tumor-bearing mice.
Tumor size was measured twice weekly in two dimensions using a caliper, and the volume was expressed in mm^3 using the formula: […]
where a and b are the long and short diameters of the tumor, respectively. The tumor size was then used to calculate TGI and T/C values.
TGI was calculated for each group using the formula: […]
where Ti is the average tumor volume of a treatment group on a given day; T0 is the average tumor volume of the treatment group on the day treatment began; Vi is the average tumor volume of the vehicle control group on the same day Ti was measured, and V0 is the average tumor volume of the vehicle group on the day treatment began. The T/C value (in percent) is an indication of antitumor effectiveness. T and C are the mean volumes of the treated and control groups, respectively, on a given day.
Summary statistics, including mean and the standard error of the mean (SEM), were provided for the tumor volume of each group at each time point. For tumor volume comparison among more than two groups, a one-way ANOVA was performed. For comparisons between two groups, a t-test was performed. All analysis was run in GraphPad Prism 5.0, with p<0.05 considered to be statistically significant.
For all groups, at four hours after last dosing, tumor samples were collected in less than one minute after the euthanasia. Four tumors in each group were snap frozen; four tumors were fixed and made into FFPE.

Another series deals with Hep3B tumor. Kind of series: In vivo efficacy study in Hep3B-FGF19 amplified mice. Particulars: Compound 1 monotherapy. On the procedure: as §1
Series [4] has as its system HCC cell lines with an intact FGFR4 signaling pathway (FGFR4, FGF19, and KLB). Particulars: Hagel et al., Cancer Discovery (2015); cited from earlier work.
A short description of series [5]: Body weight in Huh-7 xenograft study. Particulars: palbociclib 90 mg/kg group, day fourteen. On the procedure: Female Balb/c nude mice (Mus Musculus) between six and eight weeks old and weighing 18 to 20 g were used to evaluate the therapeutic efficacy of palbociclib and Compound 1 as monotherapies and in combination in Huh-7 liver cancer xenograft models. The tumor cells were maintained in vitro as a monolayer culture in DMEM medium supplemented with 10% heat inactivated fetal bovine serum at 37° C. in a 5% CO2 atmosphere. The tumor cells were routinely subcultured twice weekly by trypsin-EDTA treatment. The cells growing in an exponential growth phase were harvested and counted for tumor inoculation.
Palbociclib treated animals were supplied with sunflower seeds to mitigate body weight loss on and after day eight per the sponsor's approval.

Take `C=CC(=O)N[C@H]1CCOC[C@H]1Nc1ncc2cc(-c3c(Cl)c(OC)cc(OC)c3Cl)ccc2n1` [Compound 1, N-((3S,4S)-3-((6-(2,6-dichloro-3,5-dimethoxyphenyl)quinazolin-2-yl)amino)tetrahydro-2H-pyran-4-yl)acrylamide]: the average tumor volume in series [1] (Compound 1 30 mg/kg) came to 262.87 mm^3; in series [1] (Compound 1 100 mg/kg) it was 168.03 mm^3; in series [1] (Compound 1 200 mg/kg), 112.22 mm^3. Also, the tolerability entry in series [2] is “well tolerated”. The T/C value came to 57% in series [3] (Compound 1 30 mg/kg bid), 24% in series [3] (Compound 1 100 mg/kg bid) and 7% in series [3] (Compound 1 200 mg/kg bid). In addition, the average tumor size in series [3] (Compound 1 30 mg/kg bid) was found to be 1612 mm^3; in series [3] (Compound 1 100 mg/kg bid), 690 mm^3; in series [3] (Compound 1 200 mg/kg bid), 198 mm^3. The same compound returned a CRs with Hep3B tumor of over 20%. In the series with Hep3B tumor, the “Hep3B tumor shrinkage (regression)” value was 100%.
For `C=CC(=O)Nc1cccc(C)c1Nc1ncc2cc(-c3c(Cl)c(OC)cc(OC)c3Cl)ccc2n1` [Compound 2, N-(2-((6-(2,6-dichloro-3,5-dimethoxyphenyl)quinazolin-2-yl)amino)-3-methylphenyl)acrylamide], the “proliferation in HCC cell lines” value in series [4] is listed as “inhibit proliferation”.
On to `CC(=O)c1c(C)c2cnc(Nc3ccc(N4CCNCC4)cn3)nc2n(C2CCCC2)c1=O` [palbociclib, 6-acetyl-8-cyclopentyl-5-methyl-2-{[5-(1-piperazinyl)-2-pyridinyl]amino}pyrido[2,3-d]pyrimidin-7(8H)-one, reference compound], for which, in series [5], the “body weight loss (same animal, euthanized)” value is recorded as over 20%. In series [3] (palbociclib 45 mg/kg), this compound yielded a T/C value of 71% and an average tumor size of 1992 mm^3. In series [3] (palbociclib 90 mg/kg), this compound displayed a T/C value of 41% and an average tumor size of 1169 mm^3.

The record behind these values is patent US20190192522A1, “INHIBITORS OF THE FIBROBLAST GROWTH FACTOR RECEPTOR 4 IN COMBINATION WITH CYCLIN-DEPENDENT KINASE INHIBITORS” (BLUEPRINT MEDICINES CORPORATION, priority 2016, published 2019).
